Source: patent publication US20060094003A1, “Acetylcholine-dependent current as a novel ionic target for atrial fibrillation” (priority 2004, published 2006)
pIC50: −log10 of the molar value.

Key:
[1] = tested on: instantaneous inward-rectifier current; assay: Whole-cell patch-clamp of instantaneous inward-rectifier current in canine cardiomyocytes; assay type: cell-based; conditions: 1 μM tertiapin-Q; not statistically significant
Protocol: Adult mongrel dogs of either sex (weighing about 20-35 kg) were anaesthetized with pentobarbital (30 mg kg^−1 I.V.) and artificially ventilated with room air. Hearts and adjacent lung tissue were relatively quickly excised through a left lateral thoracotomy and immersed in oxygenated Tyrode solution (composition detailed hereinbelow) at room temperature. […] A left atrial (LA) preparation with the PVs intact was perfused via the left circumflex coronary artery, and subjected to either standard fine-tipped microelectrode recording of action potentials (APs) or cardiomyocyte isolation with collagenase-containing solutions, as previously described (Ehrlich et al. 2003). Six dogs were subjected to atrial tachycardia-induced remodeling induced by 1 week of atrial pacing at about 400 beats min^−1 after ablation of the AV node, as described in Li et al. 1999. Animal care and handling procedures followed the guidelines of the Canadian Council on Animal Care.
To isolate LA and PV cardiomyocytes, the proximal circumflex artery was cannulated and the distal ends of PV myocardial sleeves (approximately 1-1.5 cm from the PV-LA junction) were marked with silk thread prior to subsequent enzyme perfusion with collagenase (100 U ml^−1, Worthington, type II), in order to facilitate localization of PV sleeves after enzymatic digestion. […] All comparisons were based on PV and LA cardiomyocytes isolated from each dog on each experimental day. After isolation, cells were stored at 4° C. and studied on the same day. […]
Currents were recorded with the whole-cell patch-clamp technique at 36±0.5° C., as described in Yue et al. 1996. […] Capacitance was assessed using 5 mV, 10 ms hyperpolarizing steps from a holding potential (HP) of −60 mV. […]
Currents were recorded with hyperpolarizing and depolarizing pulses (generally 4 s duration) from a HP of −40 mV to selected test potentials (TPs). […] For the determination of reversal potentials, tail currents were recorded after 1.6 s pulses to −120 mV followed by 3.2 s depolarizations to TPs between −110 and +20. […]

Kir1 channels = target: T1, Kir1 channels (Homo sapiens, UniProt P48048); conditions: Jin & Lu, 1999; cited from earlier work
T1 sequence (P48048 1-391): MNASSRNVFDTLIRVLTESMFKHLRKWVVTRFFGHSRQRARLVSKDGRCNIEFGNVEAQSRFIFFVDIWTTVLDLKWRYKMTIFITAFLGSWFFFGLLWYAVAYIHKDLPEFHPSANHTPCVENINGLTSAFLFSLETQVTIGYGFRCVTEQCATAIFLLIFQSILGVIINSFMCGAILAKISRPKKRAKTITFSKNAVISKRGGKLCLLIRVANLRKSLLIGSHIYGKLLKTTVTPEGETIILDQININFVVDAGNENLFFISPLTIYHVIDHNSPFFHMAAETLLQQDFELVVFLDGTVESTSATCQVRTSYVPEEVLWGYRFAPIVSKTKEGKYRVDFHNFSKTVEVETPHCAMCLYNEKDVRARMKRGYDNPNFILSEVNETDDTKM

Kir2.1 channels = target: T2, Kir2.1 channels (Homo sapiens, UniProt P63252); conditions: at micromolar concentrations; Jin & Lu, 1999; cited from earlier work
T2 sequence (P63252 1-427): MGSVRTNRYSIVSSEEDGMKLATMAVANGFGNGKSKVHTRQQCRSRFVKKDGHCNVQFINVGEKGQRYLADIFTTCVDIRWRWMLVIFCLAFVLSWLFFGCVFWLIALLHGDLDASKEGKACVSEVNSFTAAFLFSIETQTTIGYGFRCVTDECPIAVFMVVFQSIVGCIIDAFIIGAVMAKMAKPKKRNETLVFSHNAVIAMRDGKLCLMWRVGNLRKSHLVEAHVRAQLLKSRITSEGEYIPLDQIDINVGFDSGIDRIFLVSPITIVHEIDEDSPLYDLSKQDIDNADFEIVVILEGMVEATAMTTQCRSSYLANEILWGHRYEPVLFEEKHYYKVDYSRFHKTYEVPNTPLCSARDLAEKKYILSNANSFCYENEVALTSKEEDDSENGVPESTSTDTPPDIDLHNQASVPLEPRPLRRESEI

IKr = IKr (Homo sapiens, UniProt Q12809); conditions: at concentrations of 8 to 30 nM; cited from earlier work
Sequence of IKr (Q12809 whole entry): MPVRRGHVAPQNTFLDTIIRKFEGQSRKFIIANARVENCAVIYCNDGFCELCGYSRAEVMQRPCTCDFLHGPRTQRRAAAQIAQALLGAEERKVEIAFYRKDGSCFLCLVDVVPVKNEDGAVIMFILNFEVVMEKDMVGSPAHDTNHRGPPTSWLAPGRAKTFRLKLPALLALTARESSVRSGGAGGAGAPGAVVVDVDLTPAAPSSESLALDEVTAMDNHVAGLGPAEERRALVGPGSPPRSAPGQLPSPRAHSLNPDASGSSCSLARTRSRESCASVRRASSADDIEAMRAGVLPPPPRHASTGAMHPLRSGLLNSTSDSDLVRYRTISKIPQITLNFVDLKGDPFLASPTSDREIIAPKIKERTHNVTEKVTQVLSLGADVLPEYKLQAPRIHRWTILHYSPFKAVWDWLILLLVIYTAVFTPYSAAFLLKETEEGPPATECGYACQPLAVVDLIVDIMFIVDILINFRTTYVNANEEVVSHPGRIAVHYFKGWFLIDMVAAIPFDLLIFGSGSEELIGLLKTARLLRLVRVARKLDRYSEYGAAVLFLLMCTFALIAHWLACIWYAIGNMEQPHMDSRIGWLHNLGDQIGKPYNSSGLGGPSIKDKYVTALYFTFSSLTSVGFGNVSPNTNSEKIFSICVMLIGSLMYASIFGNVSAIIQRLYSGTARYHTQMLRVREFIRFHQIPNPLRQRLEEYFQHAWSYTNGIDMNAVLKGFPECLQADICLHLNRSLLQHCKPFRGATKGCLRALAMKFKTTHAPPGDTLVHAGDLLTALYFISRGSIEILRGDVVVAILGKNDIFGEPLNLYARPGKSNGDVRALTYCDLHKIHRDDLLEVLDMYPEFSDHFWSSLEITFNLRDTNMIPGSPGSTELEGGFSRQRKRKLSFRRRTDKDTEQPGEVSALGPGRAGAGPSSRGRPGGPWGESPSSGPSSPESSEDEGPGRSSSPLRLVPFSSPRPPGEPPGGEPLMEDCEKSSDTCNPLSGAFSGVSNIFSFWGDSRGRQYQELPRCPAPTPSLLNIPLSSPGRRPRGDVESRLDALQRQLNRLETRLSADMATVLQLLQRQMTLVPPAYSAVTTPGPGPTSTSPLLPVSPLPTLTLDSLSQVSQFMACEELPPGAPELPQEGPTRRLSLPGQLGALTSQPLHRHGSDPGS

IKs = IKs (Homo sapiens, UniProt P51787); conditions: at concentrations of 8 to 30 nM; cited from earlier work
Ito = conditions: at concentrations of 8 to 30 nM; cited from earlier work
IK1 = conditions: at concentrations of 8 to 30 nM; cited from earlier work

Question: Which “decrease of mean instantaneous current” value [1] does the source give for tertiapin-Q here?
Answer: 25%

Question: What about the pIC50 (Kir1 channels) of the same substance?
Answer: 8.70

Question: And the “effect on Kir2.1 channels (in words)” value (Kir2.1 channels)?
Answer: minimal effects

Question: And the “effect on IKr (in words)” value (IKr)?
Answer: no effect

Question: And the “effect on IKs (in words)” value (IKs)?
Answer: no effect

Question: And the “effect on Ito (in words)” value (Ito)?
Answer: no effect

Question: And the “effect on IK1 (in words)” value (IK1)?
Answer: no effect
